According to patent US20150359795A1, “HIGH DRUG LOAD PHARMACEUTICAL COMPOSITIONS WITH CONTROLLABLE RELEASE RATE AND PRODUCTION METHODS THEREOF” (Pharmosa Limited, priority 2014, published 2015):
Counter-ions that a name gives are not always drawn.

Legend:
[1] = Tablet-forming ability of APIs (self-granulation with water, hardness and friability of tablets); format: physicochemical; conditions: tablets of 99% API and 1% magnesium stearate, about 100 mg; for The tablet-forming ability Hardness of tablets (kp): wet granulated with purified water
Protocol: (§1) The viscosities of saturated aqueous solutions or aqueous solutions with different weight percentage of the compounds are measured with Rotational viscometers (Brooksfield, USA) at 25° C.
Each API listed in Table 1-1 is separately weighed […] and wet granulated in a high shear mixer using purified water. The wet granules are dried in an oven and sieved with 20 mesh screen. Each of the dried granules is separately transferred into a V-blender, and mixed with 5 g of magnesium stearate. The obtained mixture is compressed into tablets. Every tablet weighs about 100 mg, and contains magnesium stearate and an individual API.

[2] = Viscosity of saturated or unsaturated aqueous solutions of APIs, rotational viscometer (Brooksfield); format: physicochemical
Protocol: The viscosities of saturated aqueous solutions or aqueous solutions with different weight percentage are measured with Rotational viscometers (Brooksfield, USA) at constant temperature 25° C., and the rotation speed is 5-100 rpm.
as §1

[3] = prior art formulation with lactose, microcrystalline cellulose, crospovidone, magnesium stearate; cited from earlier work

| Structure (SMILES) | The tablet-forming ability Friability of tablets (%) [1] | The tablet-forming ability Hardness of tablets (kp) [1] | Unsaturated aqueous solution at 25° C. Viscosity (cP) ([2]; weight percent 30%) | Saturated aqueous solution at 25° C. Viscosity (cP) [2] | Unsaturated aqueous solution at 25° C. Viscosity (cP) ([2]; weight percent 25%) | drug dissolved in 5 minutes in vitro [3] | Unsaturated aqueous solution at 25° C. Viscosity (cP) ([2]; weight percent 10%) |
| --- | --- | --- | --- | --- | --- | --- | --- |
| COc1cc2nc(N(C)CCCNC(=O)C3CCCO3)nc(N)c2cc1OC (stereo not shown) [Alfuzosin HCl] | <0.1% | 3-8 kp | ~10 cP | ~170 cP | – | – | – |
| NS(=O)(=O)c1cc2c(cc1Cl)NCNS2(=O)=O [Hydrochlorothiazide] | – | – | – | ~1 cP | – | – | – |
| Cc1ccc(NC(=O)c2ccc(CN3CCN(C)CC3)cc2)cc1Nc1nccc(-c2cccnc2)n1 [Imatinib mesylate] | <0.1% | 3-8 kp | – | ~1100 cP | ~15 cP | – | – |
| CN(C)C(=N)N=C(N)N [Metformin HCl] | – | – | – | ~2 cP | – | – | – |
| CCCCCCCCOc1ccccc1C(=O)Nc1ccc(C(=O)OCC[N+](C)(CC)CC)cc1 [Otilonium bromide] | <0.1% | 3-8 kp | – | ~540 cP | – | more than 90% | ~12 cP |
| CCN1CCCC1CNC(=O)c1cc(S(N)(=O)=O)ccc1OC (stereo not shown) [Sulpiride] | – | – | – | ~2 cP | – | – | – |
